27 compounds from US11559538B2, “Substituted 1,2-oxaborolan-2-ols as PDE4 inhibitors” (Pfizer Inc., priority 2018, dated 2023) can be followed below.

The target in test [1] is PDE4B (aa 152-484, Uniprot ID Q07343) (Homo sapiens (Human), UniProt Q07343). The test is described as follows: PDE4 SPA assay (scintillation proximity assay). The following applies: read-out: PDE4B2 IC50. Type of test: biochemical. Put shortly:
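Scintillation proximity read-out after a 30 min room-temperature reaction of ~81.6 pM PDE4B catalytic fragment (aa 152-484) with 1 μM tritiated/unlabeled cAMP, pH 7.5 Tris buffer with MgCl2 and Brij 35. Compound given ~10 min beforehand, 4-fold dilutions, ~2% DMSO; IC50 from four-parameter logistic curve.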
(In general: SPA uses beads or plates that emit light when radiolabelled molecules are held near them.)

Test [2] has as its system IL-4. Nature of the test: Cytokine assay: IL-4 release from PHA-L stimulated human PBMCs. The class given is cell-based. Conditions: read-out: IL4 IC50. A digest of the protocol: (§1)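 HTRF read-out of cytokine in culture supernatants after 48 h. PBMCs (human, ~250,000/well) received compound (4-fold dilutions, 0.25% DMSO) 10 min before PHA-L at 3.5 μg/mL final. IC50 from four-parameter logistic curve.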

Test [3] deals with IL-13. Nature of the test: Cytokine assay: IL-13 release from PHA-L stimulated human PBMCs. Conditions: read-out: IL13 IC50. Type of test: cell-based. Put shortly:
as §1

Test [4] concerns IFNγ. Nature of the test: Cytokine assay: IFNγ release from PHA-L stimulated human PBMCs. Type of test: cell-based. A digest of the protocol: as §1

Where two headings read alike, the source gives them in different places.

Chain of PDE4B (aa 152-484, Uniprot ID Q07343) (Q07343 324-656): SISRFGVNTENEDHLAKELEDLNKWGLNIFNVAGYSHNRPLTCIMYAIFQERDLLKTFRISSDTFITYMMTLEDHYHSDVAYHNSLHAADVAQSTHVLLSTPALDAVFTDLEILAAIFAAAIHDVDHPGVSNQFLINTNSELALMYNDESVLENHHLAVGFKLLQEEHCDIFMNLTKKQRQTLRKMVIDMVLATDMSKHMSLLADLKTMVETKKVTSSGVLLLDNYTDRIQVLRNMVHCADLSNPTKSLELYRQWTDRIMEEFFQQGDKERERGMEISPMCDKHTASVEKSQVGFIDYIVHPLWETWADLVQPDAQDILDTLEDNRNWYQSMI

One may read the IC50 as the point on the concentration scale where inhibition reaches its midpoint. As for `COc1ccc(-c2cncc(C3COB(O)C3)c2)cc1OC1CSC1` (stereo not drawn) [Example 68, 4-(5-(4-methoxy-3-(thietan-3-yloxy)phenyl)pyridin-3-yl)-1,2-oxaborolan-2-ol], the IC50 turned out to be 0.47 nM in test [1]; 4.85 nM in test [2] (Homo sapiens, PBMC); 369 nM in test [3] (Homo sapiens, PBMC); 1.5 nM in test [4] (Homo sapiens, PBMC).
For `CCOc1cc(-c2cncc(C3COB(O)C3)c2)c(C)cc1OC` (stereo not drawn) [Example 69, 4-(5-(5-ethoxy-4-methoxy-2-methylphenyl)pyridin-3-yl)-1,2-oxaborolan-2-ol], the concentration for half-maximal inhibition (IC50) is 4.39 nM in test [1]; 6.51 nM in test [2] (Homo sapiens, PBMC); 373 nM in test [3] (Homo sapiens, PBMC); 3.84 nM in test [4] (Homo sapiens, PBMC).
On to `CCOc1cc(-c2nc(C3COB(O)C3)ns2)ccc1OC` (stereo not drawn) [Example 72, 4-(5-(3-ethoxy-4-methoxyphenyl)-1,2,4-thiadiazol-3-yl)-1,2-oxaborolan-2-ol], for which the half-maximal inhibitory concentration (IC50) came to 0.85 nM in test [1]; 103 nM in test [2] (Homo sapiens, PBMC); 375 nM in test [3] (Homo sapiens, PBMC); 6.21 nM in test [4] (Homo sapiens, PBMC).
The like results for `CCOc1c(OC)ccc(-c2cncc(C3COB(O)C3)c2)c1F` (stereo not drawn) [Example 73, 4-(5-(3-ethoxy-2-fluoro-4-methoxyphenyl)pyridin-3-yl)-1,2-oxaborolan-2-ol] were, in that order, 2.19 nM, 49.9 nM, 384 nM and 1.66 nM.
With `COc1ccc(-c2cccc(C3COB(O)C3)c2)cc1OC(C)C` (stereo not drawn) [Example 75, 4-(3′-isopropoxy-4′-methoxy-[1,1′-biphenyl]-3-yl)-1,2-oxaborolan-2-ol], the IC50 was found to be 4.52 nM in test [1]; 125 nM in test [2] (Homo sapiens, PBMC); 395 nM in test [3] (Homo sapiens, PBMC); 5.98 nM in test [4] (Homo sapiens, PBMC).
As for `CCCOc1cc(-c2nc(CO)cc(C3COB(O)C3)n2)ccc1OC` (stereo not drawn) [Example 76, 4-(6-(hydroxymethyl)-2-(4-methoxy-3-propoxyphenyl)pyrimidin-4-yl)-1,2-oxaborolan-2-ol], the 50% inhibitory concentration (IC50) in test [1] is 10 nM; in test [2], 5.75 nM; in test [3], 403 nM; in test [4], 2.17 nM.
For the compound `CCOc1cc(-c2cccc(C3COB(O)C3)c2)ccc1OC` (stereo not drawn) [Example 77, 4-(3′-ethoxy-4′-methoxy-[1,1′-biphenyl]-3-yl)-1,2-oxaborolan-2-ol], the half-maximal inhibitory concentration (IC50) in test [1] worked out at 2.4 nM; in test [2] (Homo sapiens, PBMC) it was 40.8 nM; in test [3] (Homo sapiens, PBMC) it was 415 nM; in test [4] (Homo sapiens, PBMC), 2.61 nM.
Take `COc1ccc(-c2cncc(C3COB(O)C3)c2)cc1OC1CCSC1` (stereo not drawn) [Example 78, 4-(5-(4-methoxy-3-((tetrahydrothiophen-3-yl)oxy)phenyl)pyridin-3-yl)-1,2-oxaborolan-2-ol]: the concentration for half-maximal inhibition (IC50) in test [1] was determined as 0.55 nM; in test [2] (Homo sapiens, PBMC), 19.1 nM; in test [3] it was 416 nM; in test [4], 1.35 nM.
With `COc1ccc(-c2cncc(C3COB(O)C3)c2)cc1OC1CCSC1` (stereo not drawn) [Example 79, 4-(5-(4-methoxy-3-((tetrahydrothiophen-3-yl)oxy)phenyl)pyridin-3-yl)-1,2-oxaborolan-2-ol], the IC50 in test [1] worked out at 1.38 nM; in test [2] it was 13.3 nM; in test [3], 748 nM; in test [4] it was 0.82 nM.
The like results for `COc1ccc(-c2cncc(C3COB(O)C3)c2)cc1OC1CCSC1` (stereo not drawn) [Example 80, 4-(5-(4-methoxy-3-((tetrahydrothiophen-3-yl)oxy)phenyl)pyridin-3-yl)-1,2-oxaborolan-2-ol] were, in that order, 1.34 nM, 19.8 nM, 2150 nM and 4.62 nM.
For `CCCOc1c(OC)ccc(-c2cncc(C3COB(O)C3)c2)c1F` (stereo not drawn) [Example 81, 4-(5-(2-fluoro-4-methoxy-3-propoxphenyl)pyridin-3-yl)-1,2-oxaborolan-2-ol], the IC50 in test [1] was 2.36 nM; in test [2] it was 54.4 nM; in test [3], 858 nM; in test [4] (Homo sapiens, PBMC), 1.62 nM.
`CCCOc1cc(-c2cncc(C3COB(O)C3)c2C)ccc1OC` (stereo not drawn) [Example 84, 4-(5-(4-methoxy-3-propoxyphenyl)-4-methylpyridin-3-yl)-1,2-oxaborolan-2-ol]: the 50% inhibitory concentration (IC50) is 1.24 nM in test [1]; 0.9 nM in test [2] (Homo sapiens, PBMC); 444 nM in test [3] (Homo sapiens, PBMC); 0.44 nM in test [4] (Homo sapiens, PBMC).
As for `CCCOc1c(OC)ccc(-c2cccc(C3COB(O)C3)n2)c1C#N` (stereo not drawn) [Example 86, 6-(6-(2-hydroxy-1,2-oxaborolan-4-yl)pyridin-2-yl)-3-methoxy-2-propoxybenzonitrile], the concentration for half-maximal inhibition (IC50) in test [1] was determined as 7.26 nM; in test [2] (Homo sapiens, PBMC), 105 nM; in test [3] (Homo sapiens, PBMC), 1330 nM; in test [4] (Homo sapiens, PBMC), 5 nM.
With `CCCOc1cc(-c2cccc(C3COB(O)C3)c2)ccc1OC` (stereo not drawn) [Example 88, 4-(4′-methoxy-3′-propoxy-[1,1′-biphenyl]-3-yl)-1,2-oxaborolan-2-ol], the IC50 in test [1] was determined as 2.64 nM; in test [2] (Homo sapiens, PBMC), 63.7 nM; in test [3] (Homo sapiens, PBMC) it was 609 nM; in test [4] (Homo sapiens, PBMC), 6.14 nM.
On to `CCOc1cc(-c2nc(C3COB(O)C3)cs2)c(F)cc1OC` (stereo not drawn) [Example 91, 4-(2-(5-ethoxy-2-fluoro-4-methoxyphenyl)thiazol-4-yl)-1,2-oxaborolan-2-ol], for which the IC50 in test [1] worked out at 3 nM; in test [2] (Homo sapiens, PBMC), 5.9 nM; in test [3] (Homo sapiens, PBMC), 460 nM; in test [4] (Homo sapiens, PBMC), 3.92 nM.
For `COc1cnc(-c2cccc(C3COB(O)C3)c2)nc1OC1CCCC1` (stereo not drawn) [Example 93, 4-(3-(4-(cyclopentyloxy)-5-methoxypyrimidin-2-yl)phenyl)-1,2-oxaborolan-2-ol], in that order: 0.5 nM, 9.87 nM, 460 nM and 1.66 nM.
For `CCOc1c(OC)ccc(-c2cncc(C3COB(O)C3)c2)c1C(F)(F)F` (stereo not drawn) [Example 94, 4-(5-(3-ethoxy-4-methoxy-2-(trifluoromethyl)phenyl)pyridin-3-yl)-1,2-oxaborolan-2-ol], in that order: 12.5 nM, 9.58 nM, 606 nM and 3.88 nM.
For `CCOc1ccc(-c2cncc(C3COB(O)C3)c2)cc1OCC` (stereo not drawn) [Example 96, 4-(5-(3,4-diethoxyphenyl)pyridin-3-yl)-1,2-oxaborolan-2-ol], in that order: 1.69 nM, 48.9 nM, 965 nM and 5.27 nM.
With `CSc1ccc(-c2cncc(C3COB(O)C3)c2)cc1OC1CCCC1` (stereo not drawn) [Example 99, 4-(5-(3-(cyclopentyloxy)-4-(methylthio)phenyl)pyridin-3-yl)-1,2-oxaborolan-2-ol], the 50% inhibitory concentration (IC50) is 1.37 nM in test [1]; 44.3 nM in test [2] (Homo sapiens, PBMC); 957 nM in test [3] (Homo sapiens, PBMC); 9.42 nM in test [4] (Homo sapiens, PBMC).
On to `CCCOc1cc(-c2cncc(C3COB(O)C3)c2)ccc1OCC` (stereo not drawn) [Example 104, 4-(5-(4-ethoxy-3-propoxyphenyl)pyridin-3-yl)-1,2-oxaborolan-2-ol], for which the IC50 in test [1] is 3.58 nM; in test [2] (Homo sapiens, PBMC) it was 29.4 nM; in test [3] (Homo sapiens, PBMC), 750 nM; in test [4] (Homo sapiens, PBMC), 5.46 nM.
With `COc1ccc(-c2cncc(C3COB(O)C3)c2)c(F)c1OC` (stereo not drawn) [Example 107, 4-(5-(2-fluoro-3,4-dimethoxyphenyl)pyridin-3-yl)-1,2-oxaborolan-2-ol], the IC50 in test [1] is 2.41 nM; in test [2] (Homo sapiens, PBMC), 27.1 nM; in test [3] it was 613 nM; in test [4] (Homo sapiens, PBMC), 4.17 nM.
Regarding `COc1ccc(-c2cncc(C3COB(O)C3)c2)c(F)c1OC` (stereo not drawn) [Example 109, 4-(5-(2-fluoro-3,4-dimethoxyphenyl)pyridin-3-yl)-1,2-oxaborolan-2-ol], the half-inhibitory concentration (IC50) in test [1] was 4.18 nM; in test [2], 22.7 nM; in test [3], 1270 nM; in test [4], 6.24 nM.
Consider `CCCCCOc1cc(-c2cccc(C3COB(O)C3)c2)ccc1OC` (stereo not drawn) [Example 110, 4-(4′-methoxy-3′-(pentyloxy)-[1,1′-biphenyl]-3-yl)-1,2-oxaborolan-2-ol], for which the 50% inhibitory concentration (IC50) in test [1] was determined as 0.61 nM; in test [2] (Homo sapiens, PBMC), 48.4 nM; in test [3] (Homo sapiens, PBMC), 496 nM; in test [4] (Homo sapiens, PBMC), 5.1 nM.
As for `CCCOc1cc(-c2cncc(C3COB(O)C3)c2)ccc1SC` (stereo not drawn) [Example 112, 4-(5-(4-(methylthio)-3-propoxyphenyl)pyridin-3-yl)-1,2-oxaborolan-2-ol], the half-maximal inhibitory concentration (IC50) was found to be 1.41 nM in test [1]; 79.9 nM in test [2]; 588 nM in test [3] (Homo sapiens, PBMC); 8.1 nM in test [4].
Consider `CCCOc1cc(-c2cncc(C3COB(O)C3)n2)ccc1OC` (stereo not drawn) [Example 115, 4-(6-(4-methoxy-3-propoxyphenyl)pyrazin-2-yl)-1,2-oxaborolan-2-ol], for which the concentration for half-maximal inhibition (IC50) in test [1] came to 1.1 nM; in test [2] (Homo sapiens, PBMC), 38.4 nM; in test [3] (Homo sapiens, PBMC) it was 509 nM; in test [4] (Homo sapiens, PBMC), 1.68 nM.
The like results for `COc1cc(-c2cccc(C3COB(O)C3)c2)cc(C#N)c1OC` (stereo not drawn) [Example 117, 3′-(2-hydroxy-1,2-oxaborolan-4-yl)-4,5-dimethoxy-[1,1′-biphenyl]-3-carbonitrile] were, in that order, 1.8 nM, 64.2 nM, 520 nM and 10 nM.
For `CCOc1cc(-c2cncc(C3COB(O)C3)c2)cc(C#N)c1OC` (stereo not drawn) [Example 118, 3-ethoxy-5-(5-(2-hydroxy-1,2-oxaborolan-4-yl)pyridin-3-yl)-2-methoxybenzonitrile], in that order: 0.9 nM, 9.78 nM, 531 nM and 2.65 nM.
